The text below walks through data of patent EP4810508A1, “ARABINOSE DERIVATIVE COMPOUND, AND COMPOSITION COMPRISING SAME FOR PREVENTING OR TREATING DEGENERATIVE BRAIN DISEASES” (Digmbio. Inc., priority 2023, dated 2025).

Structures are written as SMILES. Where two headings read alike, the source gives them in different places.

The test system of the assay is HRE/Luc/HEK293 cells. Description: HRE (Hypoxia Response Element) luciferase assay. It is filed as cell-based, human. The settings on record: for fold induction at 10 µM / fold induction at 100 µM: Homo sapiens; for HRE expression: low concentration of 1 µM. In outline: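 HRE-luciferase HEK293 cells in MEM/10% FBS pretreated with compound 6 h, then held under hypoxia (0.1% O2) 18 h; luminescence read after lysis. Scored as fold increase over vehicle, with twofold threshold at 100, 10 or 1 µM.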

The mark [1] stands for this setting: HEK293, fold increase of HRE expression, hypoxic conditions (O2 0.1%) 18 hours, Table 2, read-out: HRE-increasing 10uM.
Where [2] appears, read: HEK293, fold increase of HRE expression, hypoxic conditions (O2 0.1%) 18 hours, Table 2, read-out: HRE-increasing 100uM.
Where [3] appears, read: HEK293, 18 h, Table 2 (Examples 75-109, 114), read-out: HRE-inceasing 10uM.
[4] abbreviates: HEK293, 18 h, Table 2 (Examples 75-109, 114), read-out: HRE-inceasing 100uM.
[5] abbreviates: HEK293, 18 h, Table 2 (Examples 37-74, 52), read-out: HKt-increasing 10uM.
The mark [6] stands for this setting: HEK293, 18 h, Table 2 (Examples 37-74, 52), read-out: HKt-increasing 100uM.

For the compound `COc1ccc(C(c2ccc(O[C@H]3OC[C@H](O)[C@H](O)[C@H]3O)cc2)(C(F)(F)F)C(F)(F)F)cc1` [Example 32, (2R,3R,4S,5S)-2-(4-(1,1,1,3,3,3-hexafluoro-2-(4-methoxyphenyl)propan-2-yl)phenoxy)tetrahydro-2H-pyran-3,4,5-triol], the fold induction at 10 µM under setting [1] was 1.3. In addition, under setting [2], the fold induction at 100 µM is 1.8.
Turning to `COc1ccc2c(ccn2-c2ccc(O[C@@H]3OC[C@H](O)[C@H](O)[C@H]3O)cc2)c1` [Example 83, (2S,3R,4S,5S)-2-(4-(5-methoxy-1H-indol-1-yl)phenoxy)tetrahydro-2H-pyran-3,4,5-triol], under setting [3], the fold induction at 10 µM was 2.2. Also, under setting [4], the fold induction at 100 µM stood at 3.3.
On the same counts, the results for `CCc1ccc2c(-c3ccc(O[C@@H]4OC[C@H](O)[C@H](O)[C@H]4O)cc3)coc2c1` [Example 96, (2S,3R,4S,5S)-2-(4-(6-ethylbenzofuran-3-yl)phenoxy)tetrahydro-2H-pyran-3,4,5-triol] are 2.6 and 2.9.
Turning to `Cc1ccc2oc(-c3ccc(O[C@H]4OC[C@H](O)[C@H](O)[C@H]4O)cc3)nc2c1` [Example 109, (2R,3R,4S,5S)-2-(4-(5-methylbenzo[d]oxazol-2-yl)phenoxy)tetrahydro-2H-pyran-3,4,5-triol], the HRE expression result was “more than threefold”. In addition, the fold induction at 10 µM under setting [3] came out at 3.2. For the same compound, the fold induction at 100 µM under setting [4] amounted to 4.4.
Turning to `CC(C)c1ccc(Oc2ccc(O[C@H]3OC[C@@H](O)[C@H](O)[C@H]3O)c(F)c2)cc1` [Example 101, (2R,3R,4S,5R)-2-(2-fluoro-4-(4-isopropylphenoxy)phenoxy)tetrahydro-2H-pyran-3,4,5-triol], the fold induction at 10 µM under setting [3] turned out to be 3.7. Further, the fold induction at 100 µM under setting [4] is 2.5.
Turning to `CC(C)c1ccc(Oc2cccc(O[C@H]3OC[C@H](O)[C@H](O)[C@H]3O)c2)cc1` [Example 54, (2R,3R,4S,5S)-2-(3-(4-isopropylphenoxy)phenoxy)tetrahydro-2H-pyran-3,4,5-triol], the fold induction at 10 µM under setting [5] stood at 1. The fold induction at 100 µM under setting [6] is 1.5.
Regarding `COc1ccc2oc(-c3ccc(O[C@@H]4OC[C@@H](O)[C@H](O)[C@H]4O)cc3)nc2c1` [Example 94, (2S,3R,4S,5R)-2-(4-(5-methoxybenzo[d]oxazol-2-yl)phenoxy)tetrahydro-2H-pyran-3,4,5-triol], the HRE expression result is “more than threefold”. Moreover, under setting [3], the fold induction at 10 µM came to 3. Moreover, under setting [4], the fold induction at 100 µM amounted to 2.2.
As for `O[C@@H]1[C@@H](O)[C@H](Oc2ccc(CN3CCCC3)cc2)OC[C@@H]1O` [Example 75, (2S,3R,4S,5S)-2-(4-(pyrrolidin-1-ylmethyl)phenoxy)tetrahydro-2H-pyran-3,4,5-triol], under setting [3], the fold induction at 10 µM was 1. Under setting [4], the fold induction at 100 µM is 1.
`CC(C)c1cccc2nc(-c3cccc(O[C@@H]4OC[C@H](O)[C@H](O)[C@H]4O)c3)oc12` [Example 98, (2S,3R,4S,5S)-2-(3-(7-isopropylbenzo[d]oxazol-2-yl)phenoxy)tetrahydro-2H-pyran-3,4,5-triol]: under setting [3], the fold induction at 10 µM was determined as 1.1. Besides, the fold induction at 100 µM under setting [4] worked out at 1.4.
As to `O=C(c1ccc(O[C@H]2OC[C@H](O)[C@H](O)[C@H]2O)cc1)c1ccco1` [Example 115, furan-2-yl(4-(((2R,3R,4S,5S)-3,4,5-trihydroxytetrahydro-2H-pyran-2-yl)oxy)phenyl)methanone], the fold induction at 10 µM under setting [1] was 1. Also, the fold induction at 100 µM under setting [2] is 1.4.
On to `COc1ccc2c(ccn2-c2ccc(O[C@H]3OC[C@H](O)[C@H](O)[C@H]3O)cc2)c1` [Example 82, (2R,3R,4S,5S)-2-(4-(5-methoxy-1H-indol-1-yl)phenoxy)tetrahydro-2H-pyran-3,4,5-triol], for which the fold induction at 10 µM under setting [3] came to 1.4. In addition, the fold induction at 100 µM under setting [4] is 2.3.
Regarding `COc1ccc(Cc2ccc(O[C@H]3OC[C@H](O)[C@H](O)[C@H]3O)cc2)c(F)c1` [Example 50, (2R,3R,4S,5S)-2-(4-(2-fluoro-4-methoxybenzyl)phenoxy)tetrahydro-2H-pyran-3,4,5-triol], under setting [5], the fold induction at 10 µM is 1. Besides, the fold induction at 100 µM under setting [6] came out at 1.4.
On the same counts, the results for `CC(C)c1ccc(Oc2ccc(O[C@H]3OC[C@H](O)[C@H](O)[C@H]3N=[N+]=[N-])cc2)cc1` [Example 69, (3S,4R,5R,6R)-5-azido-6-(4-(4-isopropylphenoxy)phenoxy) tetrahydro-2H-pyra-3,4-diol] are 1.7 and 3.
For the compound `CC(C)c1ccc(-c2ccc(Cc3ccc(O[C@H]4OC[C@H](O)[C@H](O)[C@H]4O)cc3)cc2)cc1` [Example 52, (2R,3R,4S,5S)-2-(4-((4'-isopropyl-[1,1'-biphenyl]-4-yl)methyl)phenoxy)tetrahydro-2H-pyran-3,4,5-triol], the fold induction at 10 µM under setting [5] stood at 2. In addition, the fold induction at 100 µM under setting [6] was found to be 3.6.
On the same counts, the results for `CC(C)c1ccc(Oc2ccc(O[C@@H]3C[C@@H](O)[C@@H](O)CO3)cc2)cc1` [Example 66, (3S,4R,6R)-6-(4-(4-isopropylphenoxy)phenoxy)tetrahydro-2H-pyran-3,4-diol] are 2.9 and 2.2.
Consider `COc1ccc2oc(-c3ccc(O[C@H]4OC[C@H](O)[C@H](O)[C@H]4O)cc3)nc2c1` [Example 91, (2R,3R,4S,5S)-2-(4-(5-methoxybenzo[d]oxazol-2-yl)phenoxy)tetrahydro-2H-pyran-3,4,5-triol], for which the fold induction at 10 µM under setting [3] is 2.4. For the same compound, the fold induction at 100 µM under setting [4] is 2.8.
Consider `CC[C@H]1CC[C@H](Cc2ccc(O[C@H]3OC[C@H](O)[C@H](O)[C@H]3O)cc2)CC1` [Example 73, (2R,3R,4S,5S)-2-(4-(((1R,4R)-4-ethylcyclohexyl)methyl)phenoxy)tetrahydro-2H-pyran-3,4,5-triol], for which the fold induction at 10 µM under setting [5] turned out to be 2.1. Moreover, under setting [6], the fold induction at 100 µM is 3.
With `Cc1ccc2c(ccn2-c2ccc(O[C@H]3OC[C@H](O)[C@H](O)[C@H]3O)cc2)c1` [Example 90, (2R,3R,4S,5S)-2-(4-(5-methyl-1H-indol-1-yl)phenoxy)tetrahydro-2H-pyran-3,4,5-triol], the fold induction at 10 µM under setting [3] came to 1.7. For the same compound, under setting [4], the fold induction at 100 µM amounted to 2.4.
With `CC(C)c1ccc(Cc2ccc(O[C@H]3OC[C@H](O)[C@H](O)[C@H]3O)cc2F)cc1` [Example 48, (2R,3R,4S,5S)-2-(3-fluoro-4-(4-isopropylbenzyl)phenoxy)tetrahydro-2H-pyran-3,4,5-triol], the fold induction at 10 µM under setting [5] came out at 1.3. Under setting [6], the fold induction at 100 µM is 2.3.
As to `Cc1ccc2oc(-c3ccc(O[C@H]4OC[C@H](O)[C@H](O)[C@H]4O)c(F)c3)nc2c1` [Example 105, (2R,3R,4S,5S)-2-(2-fluoro-4-(5-methylbenzo[d]oxazol-2-yl)phenoxy)tetrahydro-2H-pyran 3,4,5-triol], the fold induction at 10 µM under setting [3] was found to be 2.5. For the same compound, the fold induction at 100 µM under setting [4] came out at 3.7.
For `CC(C)c1ccc(-c2ccc(O[C@@H]3OC[C@H](O)[C@H](O)[C@H]3O)cc2)cc1` [Example 87, (2S,3R,4S,5S)-2-((4'-isopropyl-[1,1'-biphenyl]-4-yl)oxy)tetrahydro-2H-pyran-3,4,5-triol], the fold induction at 10 µM under setting [3] was determined as 2.4. The fold induction at 100 µM under setting [4] came out at 3.1.
